Experiments:
Rtkn-GFP = assay: ToxTracker genotoxicity assay, Rtkn-GFP reporter induction; conditions: for Genotoxicity test, Rtkn induction level: fold induction
Bscl2-GFP = assay: ToxTracker genotoxicity assay, Bscl2-GFP reporter induction; conditions: for Genotoxicity test, Bscl 2 induction level: fold induction
[1] = GFP induction vs vehicle at 10% cytotoxicity, 3 h exposure with S9, 24 h recovery
[2] = GFP induction vs vehicle at 10% cytotoxicity, 24 h exposure, no S9
[3] = GFP induction vs vehicle at 25% cytotoxicity, 3 h exposure with S9, 24 h recovery
[4] = GFP induction vs vehicle at 25% cytotoxicity, 24 h exposure, no S9
[5] = GFP induction vs vehicle at 50% cytotoxicity, 3 h exposure with S9, 24 h recovery
[6] = GFP induction vs vehicle at 50% cytotoxicity, 24 h exposure, no S9
[7] = with S9 rat liver extract, concentration 10 (10% cytotoxicity)
[8] = with S9 rat liver extract, concentration 25 (25% cytotoxicity)
[9] = with S9 rat liver extract, concentration 50 (50% cytotoxicity)
[10] = without S9 rat liver extract, concentration 10 (10% cytotoxicity)
[11] = without S9 rat liver extract, concentration 25 (25% cytotoxicity)
[12] = without S9 rat liver extract, concentration 50 (50% cytotoxicity)

| Compound | Genotoxicity test, Rtkn induction level (Rtkn-GFP; [7]) | Genotoxicity test, Rtkn induction level (Rtkn-GFP; [8]) | Genotoxicity test, Rtkn induction level (Rtkn-GFP; [9]) | Genotoxicity test, Rtkn induction level (Rtkn-GFP; [10]) | Genotoxicity test, Rtkn induction level (Rtkn-GFP; [11]) | Genotoxicity test, Rtkn induction level (Rtkn-GFP; [12]) | Genotoxicity test, Bscl 2 induction level (Bscl2-GFP; [7]) | Genotoxicity test, Bscl 2 induction level (Bscl2-GFP; [8]) | Genotoxicity test, Bscl 2 induction level (Bscl2-GFP; [9]) | Genotoxicity test, Bscl 2 induction level (Bscl2-GFP; [10]) | Genotoxicity test, Bscl 2 induction level (Bscl2-GFP; [11]) | Genotoxicity test, Bscl 2 induction level (Bscl2-GFP; [12]) | also measured |
| --- | --- | --- | --- | --- | --- | --- | --- | --- | --- | --- | --- | --- | --- |
| COCCOCCOCCOCCOCCOCCOCCOCCOCCOCCOCCOCCOCCOCC(CN1CC1C)OC(=O)NCCCCCCn1c(=O)n(CCCCCCNC(=O)OC(COCCOCCOCCOCCOCCOCCOCCOCCOCCOCCOCCOCCOCCOC)CN2CC2C)c(=O)n(CCCCCCNC(=O)OC(COCCOCCOCCOCCOCCOCCOCCOCCOCCOCCOCCOCCOCCOC)CN2CC2C)c1=O (stereo not shown) [Ex. 29] | – | – | – | – | – | – | – | – | – | – | – | – | Genotoxicity test, With S9 rat liver extract, Rtkn, 10 (Rtkn-GFP; [1]): 1.1 fold; Genotoxicity test, Without S9 rat liver extract, Rtkn, 10 (Rtkn-GFP; [2]): 1.0 fold; Genotoxicity test, With S9 rat liver extract, Rtkn, 25 (Rtkn-GFP; [3]): 1.1 fold; Genotoxicity test, Without S9 rat liver extract, Rtkn, 25 (Rtkn-GFP; [4]): 1.1 fold; Genotoxicity test, With S9 rat liver extract, Rtkn, 50 (Rtkn-GFP; [5]): 1.1 fold; Genotoxicity test, Without S9 rat liver extract, Rtkn, 50 (Rtkn-GFP; [6]): 1.1 fold; Genotoxicity test, With S9 rat liver extract, Bscl 2, 10 (Bscl2-GFP; [1]): 1.1 fold; Genotoxicity test, Without S9 rat liver extract, Bscl 2, 10 (Bscl2-GFP; [2]): 1.1 fold; Genotoxicity test, With S9 rat liver extract, Bscl 2, 25 (Bscl2-GFP; [3]): 1.1 fold; Genotoxicity test, Without S9 rat liver extract, Bscl 2, 25 (Bscl2-GFP; [4]): 1.4 fold; Genotoxicity test, With S9 rat liver extract, Bscl 2, 50 (Bscl2-GFP; [5]): 1.1 fold; Genotoxicity test, Without S9 rat liver extract, Bscl 2, 50 (Bscl2-GFP; [6]): 1.4 fold |
| COCCOCCOCCOCCOCCOCCOCCOCCOCCOCCOCCOCCOCCOCCOCCOCCOCCOCCOCCOCCOCCOCCOCCOCCOCCOCC(CN1CC1C)OC(=O)NCCCCCCn1c(=O)n(CCCCCCNC(=O)OC(COCCOCCOCCOCCOCCOCCOCCOCCOCCOCCOCCOCCOCCOCCOCCOCCOCCOCCOCCOCCOCCOCCOCCOCCOCCOC)CN2CC2C)c(=O)n(CCCCCCNC(=O)OC(COCCOCCOCCOCCOCCOCCOCCOCCOCCOCCOCCOCCOCCOCCOCCOCCOCCOCCOCCOCCOCCOCCOCCOCCOCCOC)CN2CC2C)c1=O (stereo not shown) [Ex. 30] | 0.8 | 0.9 | 1.0 | 0.9 | 0.9 | 1.0 | 1.0 | 1.5 | 1.8 | 1.0 | 1.3 | 1.6 | – |
| CCCCOCC(CN1CC1(C)C)OC(=O)NCCCCCCn1c(=O)n(CCCCCCNC(=O)OC(COCCCC)CN2CC2(C)C)c(=O)n(CCCCCCNC(=O)OC(COCCCC)CN2CC2(C)C)c1=O (stereo not shown) [Ex. 31] | 1.2 | 1.2 | 1.3 | 1.2 | 1.2 | – | 1.1 | 1.1 | 1.1 | 1.2 | 1.2 | – | – |
| CCCCOCC(CN1CC1CC)OC(=O)NCCCCCCn1c(=O)n(CCCCCCNC(=O)OC(COCCCC)CN2CC2CC)c(=O)n(CCCCCCNC(=O)OC(COCCCC)CN2CC2CC)c1=O (stereo not shown) [Ex. 32] | 1.0 | 1.1 | 1.1 | 1.0 | 1.1 | 1.1 | 1.1 | 1.1 | 1.1 | 1.1 | 1.2 | 1.3 | – |

From patent publication US12180194B2, “Multi-aziridine compound” (Covestro (Netherlands) B.V., priority 2018, dated 2024)
